Key:
S. mansoni = test: Curative efficacy against schistosome infection in mice; format: in vivo, Schistosoma mansoni
Protocol: Assays testing the curative efficacy of compounds against schistosome infection were performed on mice 6 weeks after exposure to cerceria. Drugs were dosed as follows. Ergotamine (95 mg/kg) was solubilized in 50 μL DMSO and diluted in 200 μL trappsol-saline and delivered by intraperitoneal injection twice a day for one week. Praziquantel (50 mg/kg) was similarly solubilized and injected intraperitoneally once a day for one week. The negative control cohort was given twice daily injections of DMSO (50 μL) added to 200 μL trappsol-saline solution. Mice were weighed and euthanized at 49 days post infection. Worms were harvested and counted as in the hepatic shift assay. Spleen and livers were weighed, and a segment of intestine was excised from the most distal region of the rectum to 10 cm above the cecum. The small and large intestines were separated by cutting immediately above and below the cecum. Each was cut lengthwise to expose the lumen and thoroughly washed in NaCl (1.2%) to remove excrement. Intestines were laid flat with the intestinal mucosa facing upwards and clamped between two glass plates to allow visual inspection of eggs using a stereo microscope.
Mice were injected with vehicle control (dmso), the current frontline anthelmintic (praziquantel) or ergotamine twice daily for one week at starting 42 days post infection.
All animals were sacrificed 49 days post infection, and worms were harvested by dissection of the mesenteric vasculature, portal vein and liver. […] Schistosomes lay large numbers of eggs within the host mesenteric system, and these progress through stages of development over approximately 5 days which can be scored looking at samples of the intestinal mucosa (Pellegrino et al., 1965). Therefore, it is possible to visually determine whether drug treatment has arrested parasite egg laying by observing a lack of developing eggs. Sections of both the large and small intestines were examined and eggs were manually counted and scored according to developmental stage (representative stages of embryo development shown in FIG. 20H-I, top).

adult schistosomes = test: Egg laying assay, adult schistosome pairs in vitro; format: cell-based, Schistosoma mansoni
Text: (§1) Female Swiss Webster mice infected with S. mansoni cerceria (NMRI strain) were sacrificed 49 days post infection by CO2 euthanasia. Adult schistosomes were recovered by perfusion with a solution of 0.85% sodium chloride+0.75% sodium citrate and dissection of the mesenteric vasculature. Harvested schistosomes were washed in RPMI 1640 Medium with GlutaMAX+5% heat inactivated FBS (Gibco) and Penicillin-Streptomycin (final concentration 100 units/mL, ThermoFisher cat #15140122).
For egg laying assays, adult schistosomes were transferred to 24 well plates the day after harvesting from mice (5 worm pairs in 2 mL media per well). Eggs were counted under a stereomicroscope daily, after which worms were transferred to a new well with fresh drug containing media. Egg counts were recorded for five days, and data processed as the mean number of eggs laid per worm pair/day. Measurements of egg dimensions were quantified using the “analyze>measure” function in ImageJ to record the length and width of individual eggs.

Sm.5HTR = Sm.5HTR (Schistosoma mansoni, UniProt G4V5G4); format: cell-based; conditions: FIG. 10A
adult S. mansoni = test: Movement assay of cultured adult S. mansoni (Example 2); format: cell-based; conditions: Schistosoma mansoni; FIG. 19B; read-out: EC50, stimulation of adult schistosome movement
Text: as §1
For movement assays, worms were cultured 37° C./5% CO2 in vented 100×25 mm petri dishes (ThermoFisher cat #4031) containing 50 mL of media and used between 1-3 days after harvesting. Prior to assessing worm movement, individuals were transferred to a six well dish (4-5 individuals per well) containing 3 mL drug solution in RPMI 1640 supplemented with HEPES (25 mM) and MS (5%). Videos were recorded using a Zeiss Discovery v20 stereomicroscope and a QiCAM 12-bit cooled color CCD camera controlled by metamorph imaging software (version 7.8.1.0). 1 minute recordings were acquired at 4 frames per second, saved as a .TIFF stack, and movement was analyzed using ImageJ software as described in (PMID: 27187180, PMID: 27397763).

[1] = infected mice, ergotamine 95 mg/kg i.p. twice a day, one week

Sequence of Sm.5HTR (G4V5G4 entry or part of it): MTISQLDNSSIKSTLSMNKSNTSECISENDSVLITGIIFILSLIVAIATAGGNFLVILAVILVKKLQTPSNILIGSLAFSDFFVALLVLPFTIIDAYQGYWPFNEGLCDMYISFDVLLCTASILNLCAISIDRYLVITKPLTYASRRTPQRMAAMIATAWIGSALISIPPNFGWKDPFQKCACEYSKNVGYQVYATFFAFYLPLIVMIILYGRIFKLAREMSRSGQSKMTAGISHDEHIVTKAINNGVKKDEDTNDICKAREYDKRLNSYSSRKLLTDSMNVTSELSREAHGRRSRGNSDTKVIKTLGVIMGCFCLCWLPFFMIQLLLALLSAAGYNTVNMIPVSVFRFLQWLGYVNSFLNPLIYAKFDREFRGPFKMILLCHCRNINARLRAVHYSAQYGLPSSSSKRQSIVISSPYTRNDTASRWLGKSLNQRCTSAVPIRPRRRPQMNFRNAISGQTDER

SMILES: CN1C[C@H](C(=O)N[C@]2(C)O[C@@]3(O)[C@@H]4CCCN4C(=O)[C@H](Cc4ccccc4)N3C2=O)C=C2c3cccc4[nH]cc(c34)C[C@H]21 [ergotamine]
- increase of liver relative to uninfected littermates (S. mansoni; [1]): 15±34%
- increase of spleen relative to uninfected littermates (S. mansoni; [1]): 151±80%
- reduction of worm burden relative to controls (S. mansoni; mice, ergotamine 95 mg/kg i.p. twice a day for one week from 42 days post infection, sacrificed day 49): 65±10%
- decrease in intestinal egg counts (S. mansoni; mice, ergotamine 95 mg/kg twice a day, praziquantel 50 mg/kg once a day, i.p., one week, versus vehicle control): 96%
- reduction in size of eggs (adult schistosomes; FIGS. 19H&I, ergotamine 1 μM): 43%
- decrease of egg laying (adult schistosomes; serotonin 100 μM, forskolin 100 μM, LSD 10 μM, nuciferine 10 μM, ergotamine 5 μM (FIG. 19F), eggs per worm pair/day over five days): 54%
- agonist efficacy at Sm.5HTR, in words (Sm.5HTR): partial agonism
- EC50 (Sm.5HTR; read-out: EC50, agonist activity at Sm.5HTR): 232 nM
- EC50 (adult S. mansoni): 10 ± 3 nM
